According to article PMC9973354 (mBio, 2022):
Values after ≈ are worked out from the molar mass of the structure shown.

How the values were obtained:
Assay type in all cases: cell-based, Pseudomonas aeruginosa
[1] = tested on: PA14 ΔfpvA ΔfpvB pHERD20T-fpvA; assay: MIC assay, ΔfpvA ΔfpvB complemented with fpvA; conditions: complementation with fpvA, arabinose induction
Description: (§1) The ΔfpvA ΔfpvB mutant was complemented in trans with pHERD20T-fpvA or pHERD20T-fpvB. pHERD20T is an arabinose-inducible vector with expression driven by the PBAD promoter under the control of AraC ([30]).
(§2) MIC assays were conducted as previously described ([13], [14]). Overnight cultures were grown in LB from a glycerol stock at 37°C with shaking (200 rpm). Subcultures in 10:90 (1:100 dilution) were cultured for 4 h. Cells were adjusted to an optical density at 600 nm (OD600) of 0.1/500 in 10:90. All compounds were serially diluted 2-fold in dimethyl sulfoxide (DMSO) or H2O at 75× the final concentration. Plates were sealed to prevent evaporation and incubated at 37°C overnight in a shaking incubator (200 rpm). The next day, the OD600 was determined with a plate reader (Thermo Scientific) and normalized to percent of growth of the vehicle control after subtracting the OD600 from blank media.

PA14 ΔfpvA mutants = assay: Growth phenotypes of deletion mutants, ΔfpvA mutants; conditions: 64 μg/mL DSX, 10:90
Text: (§3) PA14, ΔfpvA, ΔfpvB, and ΔfpvA ΔfpvB strains treated with TS (A) and DSX (B) in 10:90. Green indicates growth, and white indicates no growth. Growth is expressed as percent of control. The PA14 ΔfpvA ΔfpvB strain complemented with pHERD20T, fpvA, or fpvB treated with TS (C) and DSX (D) in 10:90. […] All experiments are averaged from three independent biological replicates. Blue indicates growth and white indicates no growth. (H) Summary of growth phenotypes of WT PA14 and combinations of single, double, triple, and quadruple deletion mutants in fpvA, fpvB, fiuA, and foxA. […] Green indicates growth, whereas no growth is indicated in white. […] Representative plates are shown.
(§4) If there were no transporters for a particular siderophore, the mutant would fail to grow due to iron restriction.

PA14 ΔfpvB mutant = assay: Growth curves with DSX and siderophores, ΔfpvB; conditions: DSX 64 μg/mL or pyoverdine 10 μg/mL alone, 20 h, 10:90
Description: (§5) Supplementary file : FIG S1 (A) FpvB is expressed in WT PA14 and the ΔfpvA mutant grown in 10:90. PilF was used as a loading control for outer membrane proteins. (B) FpvA is expressed from WT PA14 grown in 10:90. […] PilF was used as a loading control for outer membrane proteins. (C) Growth curves of PA14 and mutants with DSX and different siderophores in 10:90. PA14, ΔfpvA, ΔfpvB, ΔfpvA ΔfpvB, and ΔpvdA ΔpchA strain growth. Blue indicates control, purple indicates treatment with 64 μg/mL DSX, yellow indicates treatment with 10 μg/mL pyoverdine (PA14), and red indicates treatment with 64 μg/mL DSX and 10 μg/mL pyoverdine (PA14). (D) ΔfpvA, ΔfpvA ΔfpvB, and ΔpvdA ΔpchA strain growth. Blue indicates control, purple indicates treatment with 64 μg/mL DSX, grey indicates treatment with 10 μg/mL ferrichrome, and red indicates treatment with 64 μg/mL DSX and 10 μg/mL ferrichrome. (E) ΔfpvA, ΔfpvA ΔfpvB, and ΔpvdA ΔpchA strain growth. […] Download FIG S1, EPS file, 8.5 MB.
(§6) Another explanation for the susceptibility of the ΔfpvA mutant to DSX is that the mutant produces less pyoverdine compared to WT cells due to loss of the signaling cascade that controls siderophore production in response to its binding to FpvA ([25]). To differentiate whether the fpvA mutant was susceptible to DSX because of reduced pyoverdine production or because FpvB was a poor pyoverdine transporter, we treated the WT, ΔfpvA, ΔfpvB, and ΔfpvA ΔfpvB strains with DSX (64 μg/mL) without and with exogenous pyoverdine (10 μg/mL) for 20 h (Fig. 1; see also Fig. S1C). Growth of the ΔfpvA mutant should be restored if there are functional pyoverdine transporters. […] The growth of the ΔfpvA ΔfpvB mutant was inhibited by DSX and pyoverdine, confirming previously published results ([18]).

[2] = tested on: PA14 ΔfpvA ΔfpvB ΔfiuA ΔfoxA quadruple mutant; assay: Growth phenotypes of deletion mutants, quadruple mutant; conditions: 64 μg/mL DSX, 10 μg/mL siderophores, 10:90
Text: as §3, §4

PA14 ΔfpvA ΔfpvB mutant [3] = assay: MIC assay, ΔfpvA ΔfpvB mutant; conditions: Pseudomonas aeruginosa, PA14
Description: as §2

PA14 ΔfpvA mutant [4] = assay: MIC assay, ΔfpvA mutant; conditions: Pseudomonas aeruginosa, PA14
Description: as §2

PA14 = assay: Growth curves with DSX and siderophores, WT PA14; conditions: DSX 64 μg/mL or pyoverdine 10 μg/mL alone, 20 h, 10:90
Description: as §5, §6

FpvB = assay: Western blot of FLAG-tagged FpvB expression after compound treatment; conditions: WT PA14 fpvB-FLAG; 10 μg/mL siderophores, 64 μg/mL DSX, 10:90
PA14 ΔfpvA ΔfpvB mutant [5] = assay: Growth curves with DSX and siderophores, ΔfpvA ΔfpvB; conditions: DSX 64 μg/mL, pyoverdine 10 μg/mL, 20 h
Description: as §5, §6
(§7) As a control, a ΔpvdA ΔpchA mutant unable to make pyoverdine and pyochelin was also tested. Growth of this mutant was inhibited by DSX.

[6] = tested on: PA14 ΔfpvA ΔfpvB pHERD20T-fpvB; assay: MIC assay, ΔfpvA ΔfpvB complemented with fpvB; conditions: complementation with fpvB, arabinose induction
Description: as §1, §2

[7] = tested on: PA14 ΔfpvA ΔfpvB pHERD20T-fpvA T660C; assay: MIC assay, ΔfpvA ΔfpvB expressing FpvA T660C; conditions: 10:90 + 2% arabinose
Text: FpvA T660C was used previously to measure pyoverdine-Fe^3+ binding affinity ([32]). However, this technique has not been applied to FpvB. A high-confidence structural model of FpvB was generated using AlphaFold2 ([33], [34]) and aligned with the structure of FpvA (PDB accession number 2O5P) to identify a residue suitable for labeling, with the assumption that FpvA and FpvB undergo similar conformational changes upon ferrisiderophore binding (see Fig. S3A through C in the supplemental material). Based on this analysis, FpvB R648 was mutated to Cys. FpvA T660C and FpvB R648C were each expressed in trans in the ΔfpvA ΔfpvB mutant. […] We could also detect expression by fluorescence microscopy with peripheral labeling consistent with expression in the outer membrane (Fig. 3B). Labeling was undetectable in empty vector and WT controls (see Fig. S4A in the supplemental material).
Supplementary file : FIG S3 Overlay of FpvA and FpvB showing residues mutated to cysteine for labeling with maleimide dyes. FpvA (PDB accession number 2O5P) was superimposed with the AlphaFold2 model of FpvB. FpvA is shown in beige and FpvB in blue. […]
MIC assays were conducted as previously described ([13], [14]). […] The next day, the OD600 was determined with a plate reader (Thermo Scientific) and normalized to percent of growth of the vehicle control after subtracting the OD600 from blank media.

PA14 ΔfpvA mutant [8] = assay: Growth curves with DSX and siderophores, ΔfpvA; conditions: DSX 64 μg/mL or pyoverdine 10 μg/mL alone, 20 h, 10:90
Description: as §5, §6, §7

PA14 ΔpvdA ΔpchA mutant = assay: Growth curves with DSX and siderophores, ΔpvdA ΔpchA; conditions: DSX 64 μg/mL, 20 h
Description: as §5, §7

[9] = tested on: PA14 mutant combinations that include ΔfoxA; assay: Growth phenotypes of deletion mutants, ΔfoxA combinations; conditions: any mutant combination with ΔfoxA; 10 μg/mL ferrioxamine E, 10:90
Text: as §3, §4

[10] = tested on: PA14 ΔfpvA ΔfpvB pHERD20T-fpvA; assay: Checkerboard assay TS and siderophores, FpvA expressed; conditions: 10:90 + 2% arabinose
Text: We investigated this hypothesis by treating the ΔfpvA ΔfpvB mutant complemented with fpvA or fpvB with TS and pyoverdine-Fe^3+. If pyoverdine competes with TS for the same binding site in the transporter, a reduction in TS susceptibility would be expected, as competition would decrease entry of the antibiotic into the cell. TS susceptibility decreased >8-fold with increasing concentrations of pyoverdine-Fe^3+ when FpvA was expressed (see Fig. S2A in the supplemental material).
Supplementary file : FIG S2 Checkerboard assays of the PA14 ΔfpvA ΔfpvB strain complemented with fpvA and fpvB in trans with TS and siderophores. […] Checkerboards of the PA14 ΔfpvA ΔfpvB pHERD20T-fpvB strain with TS and enterobactin (G), ferrioxamine E (H), and arthrobactin (I). Results are averaged from three independent biological replicates. Cells in the assay were grown in 10:90 + 2% arabinose. Download FIG S2, EPS file, 2.2 MB.
Checkerboards (8 rows by 8 columns) were conducted as previously described in a 96-well plate (Nunc) ([13], [14]). TS at 75× the final concentration dissolved in DMSO was added in columns from bottom to top in increasing concentrations. Siderophores at 75× the final concentration dissolved in DSMO were added from in rows from left to right in increasing concentrations. Four columns were used for vehicle controls (DMSO) and sterile controls. […] Plates were sealed to prevent evaporation and incubated at 37°C overnight in a shaking incubator (200 rpm). The next day, the OD600 was determined with a plate reader (Thermo Scientific) and normalized to percent of growth of the vehicle control (DMSO) after subtracting the OD600 from blank media.

Row | Compound | growth with DSX [1] | growth in the presence of compound (PA14 ΔfpvA mutants) | growth versus control (PA14 ΔfpvB mutant) | growth in the presence of compound [2] | MIC (PA14 ΔfpvA ΔfpvB mutant [3]) [µg/mL] | MIC (PA14 ΔfpvA mutant [4]) [µg/mL] | growth versus control (PA14) | stimulation of FpvB expression (FpvB) | growth versus control (PA14 ΔfpvA ΔfpvB mutant [5]) | growth with DSX [6] | growth with DSX [7] | growth versus control (PA14 ΔfpvA mutant [8]) | growth versus control (PA14 ΔpvdA ΔpchA mutant) | growth in the presence of compound [9] | effect of siderophore on TS susceptibility [10]
1 | O=C(O)c1ccc(-n2nc(-c3ccccc3O)nc2-c2ccccc2O)cc1 [DSX, deferasirox] | restored growth | unable to grow | growth was similar between the control and DSX conditions | failed to grow | 8 (≈ 21.4 µM) | 8 (≈ 21.4 µM) | growth was similar between the control and DSX conditions | None of the compounds stimulated expression | inhibited | could not restore growth | restored growth with DSX | inhibited growth | inhibited | – | –
2 | O=C1CCC(=O)N(O)CCCCCNC(=O)CCC(=O)N(O)CCCCCNC(=O)CCC(=O)N(O)CCCCCN1 [ferrioxamine E] | – | – | – | failed to grow | – | – | – | – | – | – | – | – | – | inhibited | None of those siderophores reduced TS susceptibility
